From ChEMBL document CHEMBL1201862, “PubChem BioAssay data set” (2004)
Calls of active or inactive are those of the source.

Experiments:
[1] = A cytotoxicity screen of small molecule inhibitors of the PhoP region in Salmonella typhi identified in the primary screen. [Related pubchem assays: 1850, 1864, 1985 ]; type: functional
[2] = target: Sphingosine 1-phosphate receptor 2 (Homo sapiens, UniProt O95136); assay: Dose Response Cell Based Assay for Agonists of the S1P2 Receptor. [Related pubchem assays: 729, 736, 843 ]; type: functional
Sequence of Sphingosine 1-phosphate receptor 2 (O95136 whole entry): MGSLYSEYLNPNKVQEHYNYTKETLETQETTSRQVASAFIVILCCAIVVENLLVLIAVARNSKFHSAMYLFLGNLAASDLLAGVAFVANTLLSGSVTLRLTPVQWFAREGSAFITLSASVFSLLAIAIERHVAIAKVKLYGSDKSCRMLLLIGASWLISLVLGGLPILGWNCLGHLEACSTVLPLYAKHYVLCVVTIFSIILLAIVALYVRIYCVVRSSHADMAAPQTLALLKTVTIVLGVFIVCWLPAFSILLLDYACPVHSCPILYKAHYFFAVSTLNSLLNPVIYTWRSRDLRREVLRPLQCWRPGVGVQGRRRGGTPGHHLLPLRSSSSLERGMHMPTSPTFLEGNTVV

[3] = target: Glutathione-S-transferase (Schistosoma japonicum, UniProt Q26513); assay: GST-antibody interaction or FRET quenching – biochemical, TR-FRET, artefact control for Vif-APOBEC3G degradation inhibitor project, dose response (AID 1117362); type: functional
Sequence of Glutathione-S-transferase (Q26513 whole entry): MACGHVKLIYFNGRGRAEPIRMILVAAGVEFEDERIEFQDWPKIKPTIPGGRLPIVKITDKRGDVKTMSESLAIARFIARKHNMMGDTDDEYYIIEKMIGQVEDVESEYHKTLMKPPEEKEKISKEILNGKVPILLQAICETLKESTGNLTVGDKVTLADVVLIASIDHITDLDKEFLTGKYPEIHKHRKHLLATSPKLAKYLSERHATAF

Transthyretin = Transthyretin (Homo sapiens, UniProt P02766); assay: Luminescence-based cell-based high throughput dose response assay to identify activators of Transthyretin (TTR) transcription.; type: functional
[4] = target: E3 ubiquitin-protein ligase Mdm2 (Homo sapiens, UniProt Q00987); assay: MDM2-luc reporter signal enhancers, multi-concentration potency testing, MDM2 ubiquitin-protein ligase inhibitor program, whole-cell format, luminescence detection, 384-well microplate (AID 1394); type: functional;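 further: MDM2 E3 inhibitors raise luminescence so EC50 is for signal enhancement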
[5] = target: T1, Tyrosine-protein phosphatase non-receptor type 7 (Homo sapiens, UniProt P35236); assay: HePTP tyrosine phosphatase activity blockers – biochemical, absorbance, leukemia target, primary screen (AID 521); type: functional
T1 sequence (P35236 whole entry): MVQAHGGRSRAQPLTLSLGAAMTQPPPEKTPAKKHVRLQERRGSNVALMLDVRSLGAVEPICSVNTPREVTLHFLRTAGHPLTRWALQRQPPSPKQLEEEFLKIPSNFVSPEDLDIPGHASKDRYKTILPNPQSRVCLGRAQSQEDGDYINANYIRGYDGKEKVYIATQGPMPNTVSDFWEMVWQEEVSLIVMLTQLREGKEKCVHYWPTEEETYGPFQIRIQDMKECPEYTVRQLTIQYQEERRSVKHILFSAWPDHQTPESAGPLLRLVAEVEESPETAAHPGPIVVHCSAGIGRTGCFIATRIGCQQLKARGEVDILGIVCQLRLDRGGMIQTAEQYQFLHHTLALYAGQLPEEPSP

cells [6] = assay: cells
[7] = target: Mitogen-activated protein kinase 10 (Homo sapiens, UniProt P53779); assay: Dose response biochemical screening assay for inhibitors of c-Jun N-Terminal Kinase 3 (JNK3). [Related pubchem assays: 746 ]
Sequence of Mitogen-activated protein kinase 10 (P53779 whole entry): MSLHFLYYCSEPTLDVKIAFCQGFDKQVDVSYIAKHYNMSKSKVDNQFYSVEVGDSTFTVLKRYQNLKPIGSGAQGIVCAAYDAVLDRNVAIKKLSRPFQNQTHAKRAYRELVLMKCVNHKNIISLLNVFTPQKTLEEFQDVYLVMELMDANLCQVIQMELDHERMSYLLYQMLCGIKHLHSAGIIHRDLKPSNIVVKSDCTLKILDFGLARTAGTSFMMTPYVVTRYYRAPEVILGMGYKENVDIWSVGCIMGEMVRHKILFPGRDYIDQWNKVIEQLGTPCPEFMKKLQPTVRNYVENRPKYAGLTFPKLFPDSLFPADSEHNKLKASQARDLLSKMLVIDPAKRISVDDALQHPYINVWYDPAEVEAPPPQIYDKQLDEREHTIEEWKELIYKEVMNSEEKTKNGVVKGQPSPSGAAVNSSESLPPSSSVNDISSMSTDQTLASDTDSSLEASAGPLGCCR

Major prion protein = Major prion protein (Homo sapiens, UniProt P04156); type: functional, cell-based
Vero = assay: Vero cell viability after compound exposure – synthesized analogs, set II, cytotoxicity control for West Nile virus antiviral project, SAR follow-up (AID 2402); type: functional; conditions: Chlorocebus sabaeus
[8] = Luminescence-based cell-based high throughput dose response assay to identify activators of the DAF-12 from the parasite S. stercoralis (ssDAF-12).; type: functional
[9] = target: Oxysterols receptor LXR-beta (Homo sapiens, UniProt P55055); assay: LXR agonists, Gal4 luciferase reporter, dose response, counter-screen for ssDAF-12 agonist project, cell-based, luminescence, HEK293, S. stercoralis campaign (AID 720737); type: functional; conditions: read-out: IC50 (the source's name)
[10] = target: T2, Short transient receptor potential channel 4 (Mus musculus, UniProt Q9QUQ5); assay: calcium entry via TRPC4 opening agents – cell-based, HEK293 TRPC4/mu-opioid, Fluo-4 calcium, dose response (AID 434937); type: functional
T2 sequence (Q9QUQ5 whole entry): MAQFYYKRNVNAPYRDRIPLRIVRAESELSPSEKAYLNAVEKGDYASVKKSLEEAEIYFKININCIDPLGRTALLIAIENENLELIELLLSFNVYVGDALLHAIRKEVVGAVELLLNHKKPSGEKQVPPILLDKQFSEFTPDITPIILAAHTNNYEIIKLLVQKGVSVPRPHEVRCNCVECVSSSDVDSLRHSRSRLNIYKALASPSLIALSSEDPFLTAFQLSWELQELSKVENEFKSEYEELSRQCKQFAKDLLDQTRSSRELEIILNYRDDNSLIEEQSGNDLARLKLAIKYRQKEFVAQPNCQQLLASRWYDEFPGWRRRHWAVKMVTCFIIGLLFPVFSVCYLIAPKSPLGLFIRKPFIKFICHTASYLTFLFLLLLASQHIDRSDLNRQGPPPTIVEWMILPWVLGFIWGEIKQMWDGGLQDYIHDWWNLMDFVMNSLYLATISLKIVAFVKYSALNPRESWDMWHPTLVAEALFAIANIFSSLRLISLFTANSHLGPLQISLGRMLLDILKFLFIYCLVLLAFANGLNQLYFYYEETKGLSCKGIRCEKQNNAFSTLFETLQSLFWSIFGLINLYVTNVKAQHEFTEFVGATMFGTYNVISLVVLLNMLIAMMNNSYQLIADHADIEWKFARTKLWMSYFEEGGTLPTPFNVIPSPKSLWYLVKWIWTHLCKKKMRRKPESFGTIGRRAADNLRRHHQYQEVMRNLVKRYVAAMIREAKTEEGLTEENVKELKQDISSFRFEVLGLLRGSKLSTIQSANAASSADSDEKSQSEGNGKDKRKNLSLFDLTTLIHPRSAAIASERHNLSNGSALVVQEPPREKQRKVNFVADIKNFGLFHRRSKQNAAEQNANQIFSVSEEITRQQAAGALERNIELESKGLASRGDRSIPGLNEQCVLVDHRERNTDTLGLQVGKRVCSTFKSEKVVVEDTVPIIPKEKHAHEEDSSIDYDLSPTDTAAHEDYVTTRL

Galanin receptor type 3 = Galanin receptor type 3 (Homo sapiens, UniProt O60755); assay: Fluorescence-based cell-based primary high throughput dose response assay to identify antagonists of the Galanin Receptor 3 (GalR3).; type: functional
Sequence of Galanin receptor type 3 (O60755 whole entry): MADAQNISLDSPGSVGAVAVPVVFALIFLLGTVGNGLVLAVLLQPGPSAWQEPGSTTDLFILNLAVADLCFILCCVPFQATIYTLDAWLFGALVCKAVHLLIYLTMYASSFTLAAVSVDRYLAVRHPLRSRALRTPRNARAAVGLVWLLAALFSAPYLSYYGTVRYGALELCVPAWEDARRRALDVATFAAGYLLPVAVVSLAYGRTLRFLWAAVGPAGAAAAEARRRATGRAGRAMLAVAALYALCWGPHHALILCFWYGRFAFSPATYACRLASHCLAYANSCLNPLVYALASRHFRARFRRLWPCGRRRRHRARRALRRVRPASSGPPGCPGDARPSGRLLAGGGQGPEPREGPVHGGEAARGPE

cells [11] = type: functional, cell-based; conditions: HEK-CNG
[12] = target: Neuropeptide Y receptor type 1 (Homo sapiens, UniProt P25929); assay: IC50 of human NPY-Y1 blockers – cell-based, dose response (AID 1277); type: functional
Sequence of Neuropeptide Y receptor type 1 (P25929 whole entry): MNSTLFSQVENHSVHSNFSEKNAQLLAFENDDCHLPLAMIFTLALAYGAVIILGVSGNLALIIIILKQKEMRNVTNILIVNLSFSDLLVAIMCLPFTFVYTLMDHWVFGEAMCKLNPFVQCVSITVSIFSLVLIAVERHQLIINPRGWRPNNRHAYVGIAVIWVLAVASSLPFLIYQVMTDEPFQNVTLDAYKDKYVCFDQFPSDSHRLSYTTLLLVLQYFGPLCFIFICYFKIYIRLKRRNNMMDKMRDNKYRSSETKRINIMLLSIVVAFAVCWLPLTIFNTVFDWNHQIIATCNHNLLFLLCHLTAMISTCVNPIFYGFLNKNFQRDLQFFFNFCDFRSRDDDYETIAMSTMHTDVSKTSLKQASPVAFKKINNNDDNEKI

[13] = target: Neuropeptide Y receptor type 2 (Homo sapiens, UniProt P49146); assay: IC50 for human NPY-Y2 blockade – cell-based, counter-screen for NPY-Y1 antagonist project, dose response (AID 1278); type: functional
Sequence of Neuropeptide Y receptor type 2 (P49146 whole entry): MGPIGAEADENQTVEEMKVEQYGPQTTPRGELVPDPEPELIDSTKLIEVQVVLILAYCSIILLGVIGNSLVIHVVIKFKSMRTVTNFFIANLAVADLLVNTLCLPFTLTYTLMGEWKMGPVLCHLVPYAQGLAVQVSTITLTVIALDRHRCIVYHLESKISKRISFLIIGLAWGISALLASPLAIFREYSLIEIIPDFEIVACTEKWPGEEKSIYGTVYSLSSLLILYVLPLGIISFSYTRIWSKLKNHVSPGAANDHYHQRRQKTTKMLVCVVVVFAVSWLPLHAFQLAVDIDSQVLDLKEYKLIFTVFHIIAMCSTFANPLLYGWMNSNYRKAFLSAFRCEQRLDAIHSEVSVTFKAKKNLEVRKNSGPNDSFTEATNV

Kallikrein-7 = Kallikrein-7 (Homo sapiens, UniProt P49862); assay: Fluorescence Intensity-based biochemical primary high throughput dose response assay to identify activators of kallikrein-7 (K7) zymogen.
Sequence of Kallikrein-7 (P49862 whole entry): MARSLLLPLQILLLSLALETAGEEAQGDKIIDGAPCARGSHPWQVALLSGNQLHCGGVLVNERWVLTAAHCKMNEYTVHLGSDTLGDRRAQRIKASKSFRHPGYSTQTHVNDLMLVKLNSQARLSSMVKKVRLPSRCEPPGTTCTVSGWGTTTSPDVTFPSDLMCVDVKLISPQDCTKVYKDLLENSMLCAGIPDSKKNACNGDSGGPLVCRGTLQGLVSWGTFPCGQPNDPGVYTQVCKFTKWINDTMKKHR

[14] = viability loss in CEM21 cells – cell-based, plate reader, dry powder, cytotoxicity control, dose response (AID 687026); type: functional
[15] = inhibition of Env-driven cell fusion – HIV entry, plate reader, dry powder, dose response (AID 687023); type: functional, cell-based
[16] = MITF Measured in Cell-Based System Using Plate Reader - 2084-01_Inhibitor_Dose_DryPowder_Activity_Set6.; type: functional
[17] = growth inhibition of SK-MEL-5 melanoma cells – cell-based, CellTiter-Glo luminescence, dry powder, set 8, orthogonal assay for MITF inhibitor project, dose response (AID 651586); type: functional
[18] = MITF Orthogonal Assay: MALME3 CTG Assay Measured in Cell-Based System Using Plate Reader - 2084-04_Inhibitor_Dose_DryPowder_Activity_Set6.; type: functional; conditions: MALME-3
[19] = growth inhibition of MALME3 cells – cell-based, CellTiter-Glo luminescence, dry powder, set 5, orthogonal assay for MITF inhibitor project, dose response (AID 651584); type: functional; conditions: MALME-3
[20] = inhibitors of TRPM1-promoter reporter in SK-MEL-5 – cell-based, luciferase, dry powder, set 9, MITF inhibitor project, dose response (AID 651588); type: functional
[21] = cytotoxicity in melanoma parental cells – cell-based, CellTiter-Glo, dry powder, set 6, MITF inhibitor project, dose response (AID 624429); type: functional; conditions: SK-MEL-5
[22] = MITF Measured in Cell-Based System Using Plate Reader - 2084-01_Inhibitor_Dose_DryPowder_Activity_Set7.; type: functional
[23] = MITF Orthogonal Assay: SK-MEL-5 CTG Assay Measured in Cell-Based System Using Plate Reader - 2084-02_Inhibitor_Dose_DryPowder_Activity_Set5.; type: functional
[24] = cytotoxicity in MITF-independent A375 cells – cell-based, CellTiter-Glo luminescence, dry powder, set 4, counter-screen for MITF inhibitor project, dose response (AID 624364); type: functional; conditions: A-375;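 further: A375 melanoma cells are MITF independent so this is a counter screen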
[25] = target: G-protein coupled receptor 183 (Homo sapiens, UniProt P32249); assay: SAR confirmation of small molecule antagonists of the EBI2 receptor via a luminescent beta-arrestin assa.; type: functional
Sequence of G-protein coupled receptor 183 (P32249 whole entry): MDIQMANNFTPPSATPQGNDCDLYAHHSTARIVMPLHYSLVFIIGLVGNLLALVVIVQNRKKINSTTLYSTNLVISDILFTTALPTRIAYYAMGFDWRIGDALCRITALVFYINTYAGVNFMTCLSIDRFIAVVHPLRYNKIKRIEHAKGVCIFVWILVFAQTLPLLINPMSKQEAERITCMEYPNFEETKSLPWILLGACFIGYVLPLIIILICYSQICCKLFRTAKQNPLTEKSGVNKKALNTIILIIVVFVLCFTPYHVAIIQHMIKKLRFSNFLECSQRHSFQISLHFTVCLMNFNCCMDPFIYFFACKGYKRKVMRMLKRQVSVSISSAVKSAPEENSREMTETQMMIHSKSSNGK

[26] = growth inhibition of PfATP4-mutant resistant parasites – NITD609-resistant line, SYBR Green, dry powder, dose response (AID 1159571); type: functional, cell-based;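 further: parasites synchronized at ring stage by sorbitol before testing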
[27] = P. falciparum Dd2 growth inhibitors, dose response, SYBR Green, cherry-picked samples (AID 1159567); type: functional, cell-based
[28] = toxicity to human HepG2 hepatoma cells – cell-based, plate reader, dry powder samples, cytotoxicity control, dose response (AID 1159569); type: functional;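 further: inhibitor potency with signal falling toward the positive control level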
[29] = growth inhibition of yeast DHODH-expressing 3D7 parasites – SYBR Green, dry powder samples, dose response (AID 1159570); type: functional, cell-based;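 further: parasite growth measured after 72 hours of compound exposure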
[30] = Dd2 malaria parasite growth inhibition potency – SYBR Green, dry powder samples, dose response (AID 1159566); type: functional, cell-based;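 further: potency for growth inhibition with lower SYBR green DNA signal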
[31] = target: RNA-editing ligase 1, mitochondrial (Trypanosoma brucei brucei, UniProt P86926); assay: inhibition of trypanosome RNA editing ligase – biochemical, fluorescence, Trypanosoma brucei, dose response (AID 1117295); type: functional
Sequence of RNA-editing ligase 1, mitochondrial (P86926 whole entry): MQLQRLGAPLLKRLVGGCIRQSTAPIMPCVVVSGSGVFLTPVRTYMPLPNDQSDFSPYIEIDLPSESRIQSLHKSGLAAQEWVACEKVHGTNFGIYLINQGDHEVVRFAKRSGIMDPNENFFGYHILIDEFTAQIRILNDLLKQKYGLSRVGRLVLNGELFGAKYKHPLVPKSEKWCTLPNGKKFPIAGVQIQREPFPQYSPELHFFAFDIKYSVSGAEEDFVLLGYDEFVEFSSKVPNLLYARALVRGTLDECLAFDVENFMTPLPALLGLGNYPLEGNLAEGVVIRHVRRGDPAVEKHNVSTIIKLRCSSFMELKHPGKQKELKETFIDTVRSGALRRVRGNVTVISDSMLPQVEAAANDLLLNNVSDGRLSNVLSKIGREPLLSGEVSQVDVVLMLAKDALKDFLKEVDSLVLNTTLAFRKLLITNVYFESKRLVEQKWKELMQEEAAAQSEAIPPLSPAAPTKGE

Phospholipase D2 = Phospholipase D2 (Homo sapiens, UniProt O14939); assay: PLD2 Cellular Concentration Response Study.; type: functional
Phospholipase D1 = Phospholipase D1 (Homo sapiens, UniProt Q13393); assay: PLD1 Cellular Concentration Response Study.; type: functional
Sequence of Phospholipase D1 (Q13393 whole entry): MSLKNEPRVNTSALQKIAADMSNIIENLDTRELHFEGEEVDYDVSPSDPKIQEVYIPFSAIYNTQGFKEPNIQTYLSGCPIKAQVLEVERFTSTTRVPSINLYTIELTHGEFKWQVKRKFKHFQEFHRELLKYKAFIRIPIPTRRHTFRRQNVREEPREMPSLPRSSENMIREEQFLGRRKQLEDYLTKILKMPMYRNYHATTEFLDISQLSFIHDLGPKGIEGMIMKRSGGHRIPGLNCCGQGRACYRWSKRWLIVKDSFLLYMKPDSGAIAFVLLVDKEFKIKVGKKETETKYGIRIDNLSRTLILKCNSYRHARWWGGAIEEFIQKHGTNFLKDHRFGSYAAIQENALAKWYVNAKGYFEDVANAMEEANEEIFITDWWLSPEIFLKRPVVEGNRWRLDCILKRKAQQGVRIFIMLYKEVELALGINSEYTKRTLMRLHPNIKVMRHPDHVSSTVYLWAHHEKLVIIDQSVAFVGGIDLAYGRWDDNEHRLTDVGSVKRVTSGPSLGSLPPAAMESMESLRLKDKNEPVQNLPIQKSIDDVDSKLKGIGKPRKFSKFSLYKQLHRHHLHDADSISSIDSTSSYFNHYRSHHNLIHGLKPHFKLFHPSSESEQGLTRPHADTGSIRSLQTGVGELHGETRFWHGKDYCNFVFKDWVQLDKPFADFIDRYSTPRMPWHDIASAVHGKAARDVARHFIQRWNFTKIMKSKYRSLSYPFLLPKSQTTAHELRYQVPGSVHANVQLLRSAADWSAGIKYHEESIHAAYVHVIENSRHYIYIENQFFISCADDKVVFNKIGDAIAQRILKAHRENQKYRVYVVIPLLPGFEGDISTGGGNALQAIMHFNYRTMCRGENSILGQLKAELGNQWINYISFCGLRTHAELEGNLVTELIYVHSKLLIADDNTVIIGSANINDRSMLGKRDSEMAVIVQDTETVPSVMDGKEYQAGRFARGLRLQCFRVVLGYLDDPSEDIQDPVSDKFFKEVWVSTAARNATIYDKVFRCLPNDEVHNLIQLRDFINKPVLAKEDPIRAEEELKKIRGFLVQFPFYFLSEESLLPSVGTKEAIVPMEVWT

[32] = target: Calcium-dependent protein kinase 1 (Plasmodium falciparum, UniProt P62344); assay: PfCDPK1 kinase inhibitors, biochemical, TCAMS library (AID 1159585); type: functional
Sequence of Calcium-dependent protein kinase 1 (P62344 whole entry): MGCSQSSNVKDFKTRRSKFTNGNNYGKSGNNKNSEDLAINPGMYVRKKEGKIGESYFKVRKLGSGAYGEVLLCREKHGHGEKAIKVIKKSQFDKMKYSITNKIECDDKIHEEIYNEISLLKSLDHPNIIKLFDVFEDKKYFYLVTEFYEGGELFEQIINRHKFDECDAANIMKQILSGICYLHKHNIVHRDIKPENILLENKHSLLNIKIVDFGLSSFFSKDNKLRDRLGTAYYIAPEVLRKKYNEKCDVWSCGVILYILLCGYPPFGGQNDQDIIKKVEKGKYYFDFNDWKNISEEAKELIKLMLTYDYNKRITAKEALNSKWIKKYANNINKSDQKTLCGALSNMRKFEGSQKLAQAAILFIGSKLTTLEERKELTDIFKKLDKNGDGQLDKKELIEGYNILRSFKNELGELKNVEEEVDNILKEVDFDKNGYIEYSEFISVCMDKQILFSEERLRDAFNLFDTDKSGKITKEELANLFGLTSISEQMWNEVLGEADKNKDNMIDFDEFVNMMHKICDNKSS

[33] = IC50 of insulin release inhibition, rat insulinoma INS-1E line, 5 mM glucose, cell-based (AID 1117331); type: functional
cells [34] = type: functional, cell-based; conditions: INS-1E
Cytochrome P450 1A2 = target: T3, Cytochrome P450 1A2 (Homo sapiens, UniProt P05177);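 further: PubChem cytochrome P450 panel assay, CYP1A2 panel member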
T3 sequence (P05177 whole entry): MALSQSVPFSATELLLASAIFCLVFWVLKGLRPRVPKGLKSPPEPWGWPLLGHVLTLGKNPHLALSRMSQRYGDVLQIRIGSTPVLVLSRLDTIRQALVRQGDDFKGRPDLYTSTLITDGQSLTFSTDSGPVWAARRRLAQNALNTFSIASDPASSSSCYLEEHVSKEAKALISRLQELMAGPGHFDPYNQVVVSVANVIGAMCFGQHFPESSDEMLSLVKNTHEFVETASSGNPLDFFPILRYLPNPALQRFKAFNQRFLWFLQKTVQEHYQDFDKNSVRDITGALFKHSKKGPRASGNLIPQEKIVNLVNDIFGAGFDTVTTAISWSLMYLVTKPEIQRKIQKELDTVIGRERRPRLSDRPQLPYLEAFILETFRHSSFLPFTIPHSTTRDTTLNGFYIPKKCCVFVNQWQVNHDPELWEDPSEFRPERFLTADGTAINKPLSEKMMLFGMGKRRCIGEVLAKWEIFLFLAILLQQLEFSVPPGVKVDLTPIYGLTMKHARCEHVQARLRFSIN

Cc1cc(Br)ccc1OCCCCNCCO
EC50 [1]: > 50 µM (active) | EC50 [2]: > 50 µM (not active)

O=C(O)C1Cc2ccccc2N2CCCC12 (configuration not stated)
IC50 [3]: 16.3 µM (active)

O=C(O)c1ccc(CSc2nnc(Cc3ccccc3)o2)cc1
EC50 (Transthyretin): > 167 µM (inactive)

CN1C(C(=O)NCc2cccc(Br)c2)CC2Cn3c(nc4cc5ccccc5cc43)C21 (configuration not stated)
EC50 [4]: 11.1 µM (not active)

COc1ccccc1C(=O)Nc1ccccc1C(=O)N1CCCC1
IC50 [5]: > 100 µM (not active)

O=C(O)CSc1ccc2ccccc2n1
IC50 (cells [6]): > 138 µM (inactive) | IC50 [7]: > 93.1 µM (not active) | IC50 (Major prion protein): 6.89 µM (active)

COc1ccc(-c2csc(N(C)C(=O)c3ccccc3Cl)n2)cc1
CC50 (Vero): > 50 µM (active)

c1ccc(SCc2nc3ccccc3s2)nc1
IC50 [8]: > 67.5 µM (inactive) | EC50 [9]: > 67.5 µM (inactive)

CC(=O)OCC[N+](C)(C)C
EC50 [10]: 0.0667 µM (active) | IC50 (Galanin receptor type 3): 1.66 µM (active) | EC50 (cells [11]): > 29.9 µM (inactive) | IC50 [12]: > 35 µM (not active) | IC50 [13]: > 35 µM (not active)

O=C1NC(C2CC3C=CC2C3)Nc2ccccc21 (configuration not stated)
EC50 (Kallikrein-7): > 69.4 µM (inactive)

CCOc1ccc(S(=O)(=O)NCc2ccncc2)cc1OCC
AC50 [14]: > 70 µM (inactive) | AC50 [15]: 0.562 µM (active)

NC1=C(NS(=O)(=O)c2ccc(Br)cc2)C(=O)c2ccccc2C1=O
AC50 [16]: 41.5 µM (active) | AC50 [17]: > 70 µM (inactive) | AC50 [18]: > 70 µM (inactive) | AC50 [19]: > 70 µM (inactive) | AC50 [20]: > 70 µM (inactive) | AC50 [21]: > 70 µM (inactive) | AC50 [22]: 53.6 µM (active) | AC50 [23]: > 70 µM (inactive) | AC50 [24]: > 70 µM (inactive)

O=C(Cc1ccc(Br)cc1)N1CCN(C(=O)c2ccc(Cl)cc2)CC1
IC50 [25]: > 1 µM (inactive)

CC(C)CC#Cc1ccc([C@@H]2[C@H](CO)N3CCCCN(S(=O)(=O)Cc4ccccc4)C[C@@H]23)cc1
AC50 [26]: 0.957 µM (active) | AC50 [27]: 2.3 µM (active) | AC50 [28]: 9.93 µM (active) | AC50 [29]: 1.48 µM (active) | AC50 [30]: 0.805 µM (active)

C=CCNC1=NC(c2ccc(F)cc2)C(C(=O)OC)=C(C)N1Cc1ccccc1C(F)(F)F (configuration not stated)
IC50 [31]: > 96.6 µM (inactive)

O=C(NCCN1CCC2(CC1)C(=O)NCN2Cc1cccc(Cl)c1)c1ccc2ccccc2c1
IC50 (Phospholipase D2): 0.25 µM (active) | IC50 (Phospholipase D1): 2.8 µM (active)

CC(C)(CN)c1nc(-c2ccc(Cl)c(O)c2)c(-c2ccnc(N)n2)[nH]1
IC50 [32]: 0.007 µM (active)

CCN(CC)CCOCCOC(=O)C1(c2ccccc2)CCCC1 [CARBETAPENTANE]
IC50 [33]: 7.69 µM (inactive) | IC50 (cells [34]): > 33.3 µM (inactive) | AC50 (Cytochrome P450 1A2): 20 µM (inconclusive)
